In US8575145B2, “Triazolopyridine compounds as PIM kinase inhibitors” (Array BioPharma Inc., priority 2008, dated 2013):
Counter-ions that a name gives are not always drawn.

Legend:
[1] = system: C.B17/Icr-Prkdc^scid/IcrIcoCrl mice, adoptive transfer model of IBD; assay: CD4+CD45RBhi Adoptive Transfer Inflammatory Bowel Disease; format: in vivo, mouse; settings: 200 mg/kg oral twice daily, 21 days of treatment
Method: On Day 0, CD4+ T cells were isolated from the spleens of female Balb/cAnNCrl mice (Charles River Laboratories; 12 weeks old) as described in Example E. The resulting cells were labeled with fluorescent antibodies against CD4 and CD45 markers and were sorted by flow cytometry for CD4+CD45RBhi cells based on fluorescence. 400,000 CD4+CD45RBhi cells were then injected intraperitoneally into C.B17/Icr-Prkdc^scid/IcrIcoCrl mice (Charles River Laboratories strain code 236; 12 weeks old). This injection of cells is known to those skilled in the art as adoptive transfer. […]
For each H&E stained section, submucosal edema was quantitated by measuring the distance from the muscularis mucosa to the internal border of the outer muscle layer in a non-tangential area thought to most representative the severity of this change. Mucosal thickness was also measured in a non-tangential area of the section that best represented the overall mucosal thickness. […]
The parameters reflecting epithelial cell loss/damage were scored individually using a % area involved scoring method: […]
The three scored parameters (inflammation, glandular epithelial loss, and erosion) were ultimately summed to arrive at a sum of histopathology scores, which indicates the overall damage and would have a maximum score of 15.

[2] = system: C57BL/6 mice immunized with hen egg lysozyme; assay: T Cell In Vivo Functional Assay (HEL immunization, ex vivo recall); set-up: species or system mouse; settings: 200 mg/kg oral twice a day, 7 days; relative to vehicle
Method: To determine the effect of compounds of Formula I on T cell responses, the following experiment was conducted. On Day O, C57BL/6 (Jackson Laboratories #000664, 6-8 weeks of age) were immunized at the base of the tail with 100 μg of hen egg lysozyme (HEL; Sigma #L7773) with complete Freund's adjuvant (CFA; Sigma #F5881). Starting on Day 0 and continuing until Day 7, mice were dosed twice a day by oral administration with vehicle (water) or the compound of Example 26 (200 mg/kg). On Day 7, opopiteal lymph nodes were removed, single cell suspensions were prepared and 500,000 cells in 200 μL were activated in 96 well plates with the indicated dose of HEL peptide. Following incubation for 72 hours at 37° C., 5% CO2, supernatants were harvested for IFNγ ELISA (R&D Systems catalog #MIF00) and proliferation was assessed using the CellTitre-Glo™ luminescent assay (Promega, Catalog #G7571) with both assays performed according to the manufacturer's protocol. ELISA plates were quantified relative to a standard curve using Molecular Devices Versamax Reader at […] and Softmax Pro software; proliferation was quantitated on a Packard TopCount instrument using luminescence protocol and data was analyzed using excel software.

F[C@@H]1CNCCC1Oc1cccc2ccc(-c3nnc4ccccn34)nc12 (stereo in doubt) [Example 26, 2-([1,2,4]triazolo[4,3-a]pyridin-3-yl)-8-((cis)-3-fluoropiperidin-4-yloxy)quinoline dihydrochloride]
colon histopathology scores (inflammation, gland loss, erosion) [1]: reduced severity of disease | decrease in mucosal thickening relative to vehicle [1]: 84% | ex vivo HEL-specific proliferation [2]: decreased | ex vivo IFNγ production [2]: decreased
